From patent US7488740B2, “Substituted quinolin-4-ylamine analogues” (Neurogen Corporation, priority 2003, dated 2009)

target: T1, human capsaicin receptor (Homo sapiens, UniProt Q8NER1); assay: Calcium mobilization assay (Example 6); assay type: cell-based; conditions: concentration required to provide a 50% decrease in the fluorescence response of cells exposed to one IC50 of capsaicin
T1 construct: A cDNA encoding full length human capsaicin receptor recited in U.S. Pat. No. 6,482,611 was subcloned in the plasmid pBK-CMV; expressed in transfected cells
In short: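 HEK293 clonal lines stably expressing full-length human capsaicin receptor, Fluo-3 AM loaded in KRH buffer pH 7.4. Compounds (final 1-5 μM) preincubated 0.5-6 h at room temperature in the dark, then capsaicin added at its predetermined IC50 concentration. FLIPR calcium signal at 30-60 s; IC50 = antagonist concentration giving 50% decrease.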

T1 sequence (Q8NER1 whole entry): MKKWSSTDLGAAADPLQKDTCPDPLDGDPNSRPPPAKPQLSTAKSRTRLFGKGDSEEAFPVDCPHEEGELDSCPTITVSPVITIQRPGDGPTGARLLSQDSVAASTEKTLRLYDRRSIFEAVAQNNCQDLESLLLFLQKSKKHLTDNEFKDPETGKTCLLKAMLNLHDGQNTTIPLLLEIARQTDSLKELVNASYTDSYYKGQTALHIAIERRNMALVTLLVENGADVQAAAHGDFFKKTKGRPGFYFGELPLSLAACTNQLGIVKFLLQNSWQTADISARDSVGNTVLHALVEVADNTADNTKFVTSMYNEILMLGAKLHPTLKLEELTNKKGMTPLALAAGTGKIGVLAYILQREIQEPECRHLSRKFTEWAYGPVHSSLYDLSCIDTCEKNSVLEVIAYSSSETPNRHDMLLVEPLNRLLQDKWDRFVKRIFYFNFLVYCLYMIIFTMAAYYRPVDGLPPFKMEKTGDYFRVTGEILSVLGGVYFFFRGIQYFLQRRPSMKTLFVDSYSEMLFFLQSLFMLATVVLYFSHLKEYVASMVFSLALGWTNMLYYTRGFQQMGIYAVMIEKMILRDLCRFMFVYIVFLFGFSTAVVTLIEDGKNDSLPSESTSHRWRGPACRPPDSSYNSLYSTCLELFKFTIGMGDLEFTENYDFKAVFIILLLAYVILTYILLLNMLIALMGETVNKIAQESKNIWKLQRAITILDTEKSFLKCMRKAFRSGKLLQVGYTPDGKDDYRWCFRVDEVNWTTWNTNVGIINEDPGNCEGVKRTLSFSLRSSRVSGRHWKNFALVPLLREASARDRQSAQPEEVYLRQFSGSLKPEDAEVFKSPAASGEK

IC50, ≤ 1000 nM:
CC(C)COCc1cc(Nc2ccc(C(C)(C)O)cc2)c2ccc(-c3ncccc3Cl)nc2n1 [Compound 64, 2-(4-{[7-(3-chloropyridin-2-yl)-2-(isobutoxymethyl)-1,8-naphthyridin-4-yl]amino}phenyl)propan-2-ol]
CC(C)COCc1cc(Nc2ccc(S(C)(=O)=O)cc2)c2ccc(-c3ncccc3C(F)(F)F)nc2n1 [Compound 65, 2-(isobutoxymethyl)-N-[4-(methylsulfonyl)phenyl]-7-[3-(trifluoromethyl)pyridin-2-yl]-1,8-naphthyridin-4-amine]
CC(O)COCc1cc(Nc2ccc(C(F)(F)F)cc2)c2ccc(-c3ncccc3C(F)(F)F)nc2n1 (centres unmarked) [Compound 66, 1-({4-{[4-(trifluoromethyl)phenyl]amino}-7-[3-(trifluoromethyl)pyridin-2-yl]-1,8-naphthyridin-2-yl}methoxy)propan-2-ol]
CC(=O)COCc1cc(Nc2ccc(C(F)(F)F)cc2)c2ccc(-c3ncccc3C(F)(F)F)nc2n1 [Compound 67, 1-({4-{[4-(trifluoromethyl)phenyl]amino}-7-[3-(trifluoromethyl)pyridin-2-yl]-1,8-naphthyridin-2-yl}methoxy)acetone]
CC(C)COCc1cc(Nc2ccc(S(=O)(=O)N(C)C)cc2)c2ccc(-c3ncccc3C(F)(F)F)nc2n1 [Compound 68, 4-({2-(isobutoxymethyl)-7-[3-(trifluoromethyl)pyridin-2-yl]-1,8-naphthyridin-4-yl]amino)-N,N-dimethylbenzenesulfonamide]
CN(Cc1cc(Nc2ccc(C(F)(F)F)cc2)c2ccc(-c3ncccc3C(F)(F)F)nc2n1)S(C)(=O)=O [Compound 70, N-methyl-N-({4-{[4-(trifluoromethyl)phenyl]amino}-7-[3-(trifluoromethyl)pyridin-2-yl]-1,8-naphthyridin-2-yl}methyl)methanesulfonamide]
CCS(=O)(=O)N(C)Cc1cc(Nc2ccc(C(F)(F)F)cc2)c2ccc(-c3ncccc3C(F)(F)F)nc2n1 [Compound 71, N-methyl-N-({4-{[4-(trifluoromethyl)phenyl]amino}-7-[3-(trifluoromethyl)pyridin-2-yl]-1,8-naphthyridin-2-yl}methyl)ethanesulfonamide]
CC(C)COCc1cc(Nc2ccc(S(=O)(=O)C(C)C)cc2)c2ccc(-c3ncccc3C(F)(F)F)nc2n1 [Compound 72, 2-(isobutoxymethyl)-N-[4-(isopropylsulfonyl)phenyl]-7-[3-(trifluoromethyl)pyridin-2-yl]-1,8-naphthyridin-4-amine]
CCCS(=O)(=O)c1ccc(Nc2cc(COCC(C)C)nc3nc(-c4ncccc4C(F)(F)F)ccc23)cc1 [Compound 73, 2-(isobutoxymethyl)-N-[4-(propylsulfonyl)phenyl]-7-[3-(trifluoromethyl)pyridin-2-yl]-1,8-naphthyridin-4-amine]
CC(C)COCc1cc(Nc2ccc(S(=O)(=O)C(F)(F)F)cc2)c2ccc(-c3ncccc3C(F)(F)F)nc2n1 [Compound 74, 2-(isobutoxymethyl)-7-[3-(trifluoromethyl)pyridin-2-yl]-N-{4-[(trifluoromethyl)sulfonyl]phenyl}-1,8-naphthyridin-4-amine]
CC(C)C(=O)N(C)Cc1cc(Nc2ccc(C(F)(F)F)cc2)c2ccc(-c3ncccc3C(F)(F)F)nc2n1 [Compound 75, N,2-dimethyl-N-({4-{[4-(trifluoromethyl)phenyl]amino}-7-[3-(trifluoromethyl)pyridin-2-yl]-1,8-naphthyridin-2-yl}methyl)propanamide]
CN(CC(=O)O)Cc1cc(Nc2ccc(C(F)(F)F)cc2)c2ccc(-c3ncccc3C(F)(F)F)nc2n1 [Compound 76, N-methyl-N-({4-{[4-(trifluoromethyl)phenyl]amino}-7-[3-(trifluoromethyl)pyridin-2-yl]-1,8-naphthyridin-2-yl}methyl)glycine]
CCN(CCCO)Cc1cc(Nc2ccc(C(F)(F)F)cc2)c2ccc(-c3ncccc3C(F)(F)F)nc2n1 [Compound 77, 3-[ethyl({4-{[4-(trifluoromethyl)phenyl]amino}-7-[3-(trifluoromethyl)pyridin-2-yl]-1,8-naphthyridin-2-yl}methyl)amino]propan-1-ol]
CC(C)N(CCCO)Cc1cc(Nc2ccc(C(F)(F)F)cc2)c2ccc(-c3ncccc3C(F)(F)F)nc2n1 [Compound 78, 3-[isopropyl({4-{[4-(trifluoromethyl)phenyl]amino}-7-[3-(trifluoromethyl)pyridin-2-yl]-1,8-naphthyridin-2-yl}methyl)amino]propan-1-ol]
CCCN(CCCO)Cc1cc(Nc2ccc(C(F)(F)F)cc2)c2ccc(-c3ncccc3C(F)(F)F)nc2n1 [Compound 79]
CC(C)CN(Cc1cc(Nc2ccc(C(F)(F)F)cc2)c2ccc(-c3ncccc3C(F)(F)F)nc2n1)S(C)(=O)=O [Compound 80, N-isobutyl-N-({4-{[4-(trifluoromethyl)phenyl]amino}-7-[3-(trifluoromethyl)pyridin-2-yl]-1,8-naphthyridin-2-yl}methyl)methanesulfonamide]
CC(C)CN(CC(=O)O)Cc1cc(Nc2ccc(C(F)(F)F)cc2)c2ccc(-c3ncccc3C(F)(F)F)nc2n1 [Compound 81, N-isobutyl-N-({4-{[4-(trifluoromethyl)phenyl]amino}-7-[3-(trifluoromethyl)pyridin-2-yl]-1,8-naphthyridin-2-yl}methyl)glycine]
CC(C)(O)COCc1cc(Nc2ccc(C(F)(F)F)cc2)c2ccc(-c3ncccc3C(F)(F)F)nc2n1 [Compound 82, 2-methyl-1-({4-{[4-(trifluoromethyl)phenyl]amino}-7-[3-(trifluoromethyl)pyridin-2-yl]-1,8-naphthyridin-2-yl}methoxy)propan-2-ol]
Cc1ccc(Nc2cc(COCC(C)C)nc3nc(-c4ncccc4C(F)(F)F)ccc23)nc1 [Compound 83, 2-(isobutoxymethyl)-N-(5-methylpyridin-2-yl)-7-[3-(trifluoromethyl)pyridin-2-yl]-1,8-naphthyridin-4-amine]
CC(C)COCc1cc(Nc2ccccn2)c2ccc(-c3ncccc3C(F)(F)F)nc2n1 [Compound 84, 2-(isobutoxymethyl)-N-pyridin-2-yl-7-[3-(trifluoromethyl)pyridin-2-yl]-1,8-naphthyridin-4-amine]
CC(C)COCc1cc(Nc2ccc(C(C)(C)O)cn2)c2ccc(-c3ncccc3C(F)(F)F)nc2n1 [Compound 85, 2-[6-({2-(isobutoxymethyl)-7-[3-(trifluoromethyl)pyridin-2-yl]-1,8-naphthyridin-4-yl}amino)pyridin-3-yl]propan-2-ol]
C[C@@H](OCc1cc(Nc2ccc(C(F)(F)F)cc2)c2ccc(-c3ncccc3C(F)(F)F)nc2n1)C(C)(C)O [Compound 86, 2-methyl-3-({4-{[4-(trifluoromethyl)phenyl]amino}-7-[3-(trifluoromethyl)pyridin-2-yl]-1,8-naphthyridin-2-yl}methoxy)butan-2-ol]
CC(C)COCc1cc(Nc2ccc(C#N)cn2)c2ccc(-c3ncccc3C(F)(F)F)nc2n1 [Compound 87, 6-({2-(isobutoxymethyl)-7-[3-(trifluoromethyl)pyridin-2-yl]-1,8-naphthyridin-4-yl}amino)nicotinonitrile]
